The series can be described thus: Absorption of aqueous solution after dissolving powder in water (riboflavin coloration/release). The format is physicochemical. As to conditions: powder containing 10 mg riboflavin in 1000 ml water for 15 min; measured at 545 nm, spectrophotometer. The method, then: 20 mg of coated powder (containing 10 mg of Riboflavin) was dissolved in 1000 ml water for 15 min. Absorption of the solution was measured at 545 nm using a spectrophotometer (Genesys 20, thermo Scientific). Absorption of the solution was 0.065.
10 mg of riboflavin powder was dissolved in 1000 ml water for 15 min. Absorption of the solution was measured at 545 nm using a spectrophotometer (Genesys 20, thermo Scientific). Absorption of the solution was 0.386.
16.6 mg of coated powder (containing 10 mg of Riboflavin) was dissolved in 1000 ml water for 15 min. Absorption of the solution was measured at 545 nm using a spectrophotometer (Genesys 20, thermo Scientific). Absorption of the solution was 0.087.

On to `Cc1cc2nc3c(=O)[nH]c(=O)nc-3n(C[C@H](O)[C@H](O)[C@H](O)CO)c2cc1C` [Comparison Example 2, riboflavin], for which the “Absorption of the solution” value was 0.386.

The values above are taken from patent US11607420B2, “Formulation” (DSM IP ASSETS B.V., priority 2018, dated 2023).
